The text below walks through data of PMC11180795 (Frontiers in Pharmacology, 2024).

What all share (type): cell-based, Murine
The nature of series [1]: Cytotoxicity MTT assay on RAW 264.7 cells. Particulars: mouse, RAW 264.7 macrophage cells, 48 h incubation, read-out: IC50, cytotoxic effect on RAW264.7 cells. As to the method:
Murine macrophage RAW 264.7 cell line obtained from the American Type Culture Collection (Rockville, MD, United States) was maintained in DMEM supplemented with 10% fetal calf serum (FCS) and 1% penicillin/streptomycin/fungizone (PSF) under standard cell culture conditions at 37°C and 5% CO2 in a humidified environment.
The cytotoxic effect of compounds on RAW 264.7 cells was assessed using the 3-(4, 5-dimethylthiazol-2-yl)-2, 5-diphenyl tetrazolium bromide (MTT) assay as established by Mosmann ([Mosmann, 1983]) with slight modifications. Briefly, cells were seeded at a density of 1 × 10^5 cells/mL (100 µL) in 96-well microtitre plates and incubated at 37°C and 5% CO2 in a humidified environment. After 24 h incubation, 100 µL of compounds (at concentration ranged from to 250 μM–1.95 µM) were added to the wells containing cells and further incubated for 48 h in a CO2 incubator. A suitable control (untreated cells) was included and doxorubicin was used as a positive reference. Thereafter, the medium in each well was aspirated from the cells, which were then washed with PBS, and finally fresh medium (200 µL) was added to each well. Then, 30 µL of MTT (5 mg/mL in PBS) was added to each well and the plates were incubated at 37°C for 4 h. The medium was aspirated from the wells and DMSO was added to solubilize the formed formazan crystals. The absorbance was read at 570 nm (SpectraMax 190, Molecular devices). The percentage of cell inhibition was calculated with reference to the control (untreated cells taken as 100% viability). Then, the IC50 values of plant compounds showing more than 50% cell growth inhibition were calculated by plotting the percentage inhibition against the concentration.

For a further series, the system named is IL-10. Briefly: Th1/Th2 cytokine measurement (Cytometric Bead Array) in LPS-stimulated Raw 264.7 cells, IL-10. Particulars: compound at 20 µM, LPS 0.1 μg/mL, 24 h; stimulated untreated control 0.88 pg/mL. As to the method: (§1) Raw 264.7 cells were seeded at 2 × 10^5 cells/mL in a 48-well microplate and allowed to adhere for 24 h, then treated with LPS 0.1 μg/mL and with compounds (1), (5) and (6) at 20 µM. Untreated cells and indomethacin (10 µM) were used as controls. After 24 h of incubation, the supernatant was collected and the amount of pro-inflammatory Th1 cytokines (IFN-γ, TNF-α, and IL-2) and anti-inflammatory Th2 cytokines (IL-4, IL-6, and IL-10) released measured. The experiment was performed according to the manufacturer’s instructions using BD™ Cytometric Bead Array (CBA) […] Th1/Th2 Cytokine Kit (BD-Biosciences), and data were acquired on a BD LSR Fortessa™ cell analyzer flow cytometer.

Series [2] relates to NO production in LPS-activated RAW 264.7 macrophages. Briefly: Inhibition of nitric oxide (NO) production in LPS-activated RAW 264.7 macrophages (Griess reagent). Particulars: for amount of NO produced: compound at 25 µM, LPS 1 μg/mL, 24 h, untreated and stimulated control 6.08 µM. As to the method:
Murine macrophage RAW 264.7 cell line obtained from the American Type Culture Collection (Rockville, MD, United States) was maintained in DMEM supplemented with 10% fetal calf serum (FCS) and 1% penicillin/streptomycin/fungizone (PSF) under standard cell culture conditions at 37°C and 5% CO2 in a humidified environment. The RAW 264.7 macrophage cells were seeded in 96 well-microtitre plates (2 × 10^5 cells/mL). They were activated by incubation in a medium containing 1 μg/mL LPS alone (control) or lipopolysaccharide, and compounds at concentration of 3.12 µM, 6.25 µM, 12.5 µM and 25 µM dissolved in DMSO. […] After 24h, the amount of nitric oxide released from macrophages was determined using the Griess reagent as previously described ([Dzoyem and Eloff, 2015]).
For orientation: The Griess reaction detects nitrite, a stable product of nitric oxide.

Another series concerns IFN-γ. Briefly: Th1/Th2 cytokine measurement (Cytometric Bead Array) in LPS-stimulated Raw 264.7 cells, IFN-γ. To be noted: compound at 20 µM; for effect on IFN-γ production (in words): vs stimulated and untreated control. As to the method:
as §1

A value given as a limit tells only on which side of the number the result lay.

One may read the IC50 as the concentration that gives 50% inhibition. For `CC(C)=CCc1c2c(c3oc4c(O)cccc4c(=O)c3c1O)C=CC(C)(C)O2` [Compound 1, Ananixanthone], the concentration for half-maximal inhibition (IC50) at 48 h in series [1] is above 100 µM. Besides, the IL-10 level in the series with IL-10 was 0.971 pg/mL. Further, in series [2] (25 µM, LPS-stimulated RAW 264.7), the “inhibitory effect on NO production at the highest concentration (in words)” value is recorded as “remarkable inhibitory effect”. Also, the IFN-γ level in the series on IFN-γ (LPS 0.1 μg/mL, 24 h, stimulated untreated control 0.84 pg/mL) is 0.43 pg/mL.
Take `CC(C)=CCC/C(C)=C/C[C@]12C[C@@H](CC=C(C)C)C(C)(C)[C@](C/C=C(\C)CCC=C(C)C)(C(=O)C(C(=O)c3ccc(O)c(O)c3)=C1O)C2=O` [Compound 5, Guttiferone O]: the IC50 at 48 h in series [1] was 64.5 µM. The molecule further gave an IL-10 level in the series on IL-10 of 2.05 pg/mL. Also, the “amount of NO produced” value in series [2] worked out at 0.3 µM. Further, the “effect on IFN-γ production (in words)” value in the series on IFN-γ is “significantly reduces”.
On the same counts, the results for `CC(C)=CCC/C(C)=C/C[C@]12C[C@@H](CC=C(C)C)C(C)(C)[C@](CC=C(C)C)(C(=O)C(C(=O)c3ccc(O)c(O)c3)=C1O)C2=O` [Compound 6, Guttiferone M] are 61.2 µM, 1.77 pg/mL, 0.54 µM and “moderate decrease”.
